Results as given in ChEMBL document CHEMBL1201862, “PubChem BioAssay data set” (2004).
The source made the active and inactive calls. Cut-off read from the data, not from the text of the source, for most assays here: actives have a measured EC50 and inactives only a lower limit.

Columns and labels:
[1] = system: Streptococcus sp. 'group A'; test: Streptococcus pyogenes SK(-)GAS viability under kanamycin – luminescence, BacTiterGlo, confirmation, counter-screen for streptokinase expression inhibitor project, dose response (AID 1900); type: functional, organism-based
Streptokinase A = molecular target: T1, Streptokinase A (Streptococcus pyogenes serotype M1, UniProt P10520); test: viability-normalized secreted streptokinase activity reduction – plasminogen activation absorbance, OD405, dose response (AID 1914); type: functional, Streptococcus pyogenes M1 GAS;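 note: secreted streptokinase activity via plasminogen activation per viability signal from cell pellet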
T1 sequence (P10520 whole entry): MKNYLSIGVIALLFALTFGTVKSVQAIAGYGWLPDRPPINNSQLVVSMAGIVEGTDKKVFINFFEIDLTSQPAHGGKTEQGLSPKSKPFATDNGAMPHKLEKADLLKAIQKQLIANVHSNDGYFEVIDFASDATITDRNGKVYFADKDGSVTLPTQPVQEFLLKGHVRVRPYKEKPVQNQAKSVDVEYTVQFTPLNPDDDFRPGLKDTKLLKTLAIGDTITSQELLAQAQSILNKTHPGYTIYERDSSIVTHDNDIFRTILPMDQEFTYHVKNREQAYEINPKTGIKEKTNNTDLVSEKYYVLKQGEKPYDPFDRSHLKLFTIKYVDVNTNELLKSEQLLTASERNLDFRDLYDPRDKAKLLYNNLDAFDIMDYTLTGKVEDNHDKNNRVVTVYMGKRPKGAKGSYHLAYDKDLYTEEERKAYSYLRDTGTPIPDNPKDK

Streptococcus [2] = test: GAS UMAA2166 growth inhibition – luminescence, BacTiterGlo, counter-screen for streptokinase expression inhibitor project, dose response (AID 1915); type: functional, organism-based;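 note: potency for reduction of bacterial viability or growth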
Streptococcus [3] = test: Luminescence Microorganism-Based Dose Response Follow up to Identify Compounds Cytotoxic to Streptococcus. [Related pubchem assays: 1677 (Project Summary), 1915, 1914, 1902 (Retest at Dose), 1900 (Counter Screen), 1662 (Primary HTS)]; type: functional, organism-based
NS3 = NS3 (Hepatitis C virus, UniProt A3EZJ3); test: PubChem AID 2173; parameters: species or system Hepacivirus hominis
[4] = molecular target: T2, RNA-binding protein pos-1 (Caenorhabditis elegans, UniProt G5EF15); test: disruptors of C. elegans POS-1 RNA interaction – biochemical, fluorescence polarization, dose response (AID 1964);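 note: purified POS-1 fused to maltose binding protein made in E. coli; potency of compounds blocking POS-1 binding to fluorescent RNA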
T2 sequence (G5EF15 whole entry): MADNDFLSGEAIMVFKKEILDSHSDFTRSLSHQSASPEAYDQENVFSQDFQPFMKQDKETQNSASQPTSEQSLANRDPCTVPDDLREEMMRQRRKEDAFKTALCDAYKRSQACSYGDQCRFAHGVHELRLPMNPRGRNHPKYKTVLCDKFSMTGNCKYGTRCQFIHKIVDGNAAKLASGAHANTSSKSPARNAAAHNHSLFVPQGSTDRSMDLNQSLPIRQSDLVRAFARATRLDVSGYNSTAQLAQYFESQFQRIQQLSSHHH

[5] = molecular target: T3, Zinc finger protein mex-5 (Caenorhabditis elegans, UniProt Q9XUB2); test: potency of MEX-5 RNA-binding blockers – biochemical, C. elegans, fluorescence polarization, dose response (AID 1960)
T3 sequence (Q9XUB2 whole entry): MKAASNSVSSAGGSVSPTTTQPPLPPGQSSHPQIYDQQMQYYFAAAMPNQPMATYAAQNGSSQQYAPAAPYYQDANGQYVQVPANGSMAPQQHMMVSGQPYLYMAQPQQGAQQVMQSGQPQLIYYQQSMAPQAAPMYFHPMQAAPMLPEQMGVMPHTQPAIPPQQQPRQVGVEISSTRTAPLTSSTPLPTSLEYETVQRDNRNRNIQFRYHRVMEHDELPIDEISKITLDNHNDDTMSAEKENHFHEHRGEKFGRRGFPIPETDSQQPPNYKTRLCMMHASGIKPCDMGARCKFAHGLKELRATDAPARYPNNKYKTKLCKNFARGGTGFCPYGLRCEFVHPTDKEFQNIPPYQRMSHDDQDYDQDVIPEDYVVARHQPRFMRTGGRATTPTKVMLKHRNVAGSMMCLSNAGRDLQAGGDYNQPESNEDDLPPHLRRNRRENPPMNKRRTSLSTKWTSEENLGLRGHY

[6] = luciferase reporter signal reduction – luminescence, H4-C neuroglioblastoma cells, dose response (AID 2458); type: functional, cell-based;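 note: H4 neuroglioblastoma cells stably carrying a luciferase reporter gene fusion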
[7] = luciferase reporter signal suppression in cells – H4 neuroglioma cells, luminescence, dose response (AID 1990); type: functional, cell-based
[8] = alpha-synuclein stem-loop luciferase translation blockers – H4 neuroglioma cells, luminescence, confirmation (AID 1988); type: functional, cell-based
[9] = alpha-synuclein stem-loop translation blockers – luminescence, H4 neuroglioblastoma cells, dose confirmation, confirmation (AID 2454); type: functional, cell-based;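 note: H4 neuroglioblastoma cells carrying an alpha-synuclein 5'UTR luciferase reporter; potency for inhibition of the luciferase signal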
cells = type: functional, cell-based

NS3, sequence (A3EZJ3 whole entry, the tested form may be a part): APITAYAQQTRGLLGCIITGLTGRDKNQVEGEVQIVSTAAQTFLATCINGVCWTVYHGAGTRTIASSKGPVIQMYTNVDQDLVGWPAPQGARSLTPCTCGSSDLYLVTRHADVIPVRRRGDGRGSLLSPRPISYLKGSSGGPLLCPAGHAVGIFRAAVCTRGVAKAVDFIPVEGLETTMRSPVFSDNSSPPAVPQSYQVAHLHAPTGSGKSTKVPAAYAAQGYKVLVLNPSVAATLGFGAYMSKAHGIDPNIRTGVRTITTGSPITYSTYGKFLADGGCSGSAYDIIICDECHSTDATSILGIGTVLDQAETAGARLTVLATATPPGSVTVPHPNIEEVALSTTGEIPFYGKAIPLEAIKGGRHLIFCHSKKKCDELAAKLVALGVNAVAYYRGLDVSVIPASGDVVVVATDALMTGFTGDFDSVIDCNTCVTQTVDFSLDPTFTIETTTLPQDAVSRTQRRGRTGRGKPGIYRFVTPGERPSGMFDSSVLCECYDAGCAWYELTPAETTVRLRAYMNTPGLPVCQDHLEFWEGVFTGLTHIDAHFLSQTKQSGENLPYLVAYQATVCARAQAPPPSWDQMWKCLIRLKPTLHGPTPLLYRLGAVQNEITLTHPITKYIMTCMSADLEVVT

**Q.** Which results are given for `O=C(NC(=S)Nc1ccccc1N1CCCC1)c1ccccc1Br`?
**A.** EC50 [1]: 32.3 µM (active); EC50 (Streptokinase A): 6.61 µM (active); EC50 (Streptococcus [2]): > 150 µM (not active); EC50 (Streptococcus [3]): > 500 µM (not active)

**Q.** Which IC50 (NS3) does the source give for `COc1cccc(C2C(C#N)=C(N)OC3=C2C(=O)CC(c2ccco2)C3)c1OCc1ccc(F)cc1` (configuration not stated) here?
**A.** 33.5 µM (not active)

**Q.** What about the EC50 [4] of the same compound?
**A.** > 300 µM (not active)

**Q.** What about the EC50 [5] of the same compound?
**A.** > 300 µM (not active)

**Q.** For `COc1ccc(C2NCc3ccc4c(c3-n3cccc32)OCO4)cc1O` (configuration not stated), which EC50 [6] is on record?
**A.** 2.6 µM (active)

**Q.** And the EC50 [7]?
**A.** < 100 nM (active)

**Q.** What about the EC50 [8] of the same compound?
**A.** < 100 nM (active)

**Q.** What about the EC50 [9] of the same compound?
**A.** > 12 µM (not active)

**Q.** What about the EC50 (cells) of the same compound?
**A.** 5.44 µM (active)
